Laboratory results reported in ChEMBL document CHEMBL1862790, “Optimisation of fenarimol series for the treatment of Chagas disease”.

How the values were obtained:
Trypanosoma cruzi [1] = test: microbe, parasite or virus in culture; assay type: functional, organism-based, Tulahuen LacZ, Clone C4; conditions: Trypanosoma cruzi, Tulahuen LacZ, Clone C4
[2] = DNDI: Cytotoxicity against L-6 rat myoblasts from skeletal muscle cells; conditions: L6 rat skeletal muscle myoblast cells
Trypanosoma cruzi [3] = test: microbe, parasite or virus in culture; assay type: functional, Tulahuen LacZ, Clone C4; conditions: Trypanosoma cruzi, Tulahuen LacZ, Clone C4

SMILES | IC50 (Trypanosoma cruzi [1]) [µM] | IC50 ([2]; IC50) [µM] | IC90 (Trypanosoma cruzi [3]) [µM] | IC50 [2] [µM]
CC(C)(C)NC(=O)N1CCN(C(c2ccc(Cl)cc2)c2cncnc2)CC1 (configuration not stated) | 0.23 | > 100 | 0.6 | 
O=S(=O)(C1CCCCC1)N1CCC(NC(c2cnccn2)c2ccc(F)cc2F)CC1 (configuration not stated) | 0.42 | > 100 | 0.92 | 
CN(C)C(=O)N1CCN(C(c2ccc(Cl)cc2)c2cccnc2)CC1 (configuration not stated) | 0.12 | > 100 | 0.3 | 
CS(=O)(=O)N1CCC(C(=O)NC(c2ccc(Cl)cc2)c2cccnc2)CC1 (configuration not stated) | 6.09 | > 100 | > 10 | 
O=C(c1ccc(C(F)(F)F)cc1)N1CCC(NC(c2cnccn2)c2ccc(F)cc2F)CC1 (configuration not stated) | 0.29 | > 100 | 0.83 | 
CCNC(=O)N1CCN(C(c2ccc(Cl)cc2)c2cncnc2)CC1 (configuration not stated) | 0.83 | > 100 | 2.72 | 
O=C(Nc1ccc(Cl)cc1)NC1CCN(C(c2ccc(Cl)cc2)c2cccnc2)CC1 (configuration not stated) | 0.006 | 21 | 0.03 | 
O=C(Oc1ccccc1)N1CCC(NC(c2ccc(Cl)cc2)c2cccnc2)CC1 (configuration not stated) | 0.02 |  | 0.044 | 60.8
CS(=O)(=O)N1CCC(NC(c2cnccn2)c2ccc(F)cc2F)CC1 (configuration not stated) | 0.68 | > 100 | > 1 | 
CCOC(=O)N1CCN(C(c2ccc(Cl)cc2)c2cncnc2)CC1 (configuration not stated) | 0.19 | > 100 | 0.36 | 
O=C(NC1CCCCC1)N1CCC(NC(c2ccc(Cl)cc2)c2cccnc2)CC1 (configuration not stated) | 0.03 | > 100 | 0.1 | 
CCOC(=O)N1CCN(C(c2cccnc2)c2ccc(Cl)cc2F)CC1 (configuration not stated) | 0.024 | 60.4 | 0.076 | 
CC(C)(C)CC(=O)N1CCN(C(c2ccc(Cl)cc2)c2cncnc2)CC1 (configuration not stated) | 0.24 | > 100 | 0.62 | 
O=C(N1CCCCC1)N1CCC(NC(c2ccc(Cl)cc2)c2cccnc2)CC1 (configuration not stated) | 0.058 | > 100 | 0.13 | 
O=C(Nc1ccccc1)N1CCC(NC(c2ccc(Cl)cc2)c2cccnc2)CC1 (configuration not stated) | 0.078 | 63.7 | 0.25 | 
CC(C)c1ccc(S(=O)(=O)N2CCC(NC(c3cnccn3)c3ccc(F)cc3F)CC2)cc1 (configuration not stated) | 0.21 | 21.9 | 0.55 | 
CC(C)(C)NC(=O)N1CCC(NC(c2ccc(Cl)cc2)c2cccnc2)CC1 (configuration not stated) | 0.06 | > 100 | 0.23 | 
CCS(=O)(=O)N1CCC(NC(c2cnccn2)c2ccc(F)cc2F)CC1 (configuration not stated) | 0.62 | > 100 | > 1 | 
O=C(OCc1ccccc1)N1CCN(C(c2ccc(Cl)cc2)c2cncnc2)CC1 (configuration not stated) | 0.15 | 52.1 | 0.3 | 
CC(C)C(=O)N1CCC(NC(c2cnccn2)c2ccc(F)cc2F)CC1 (configuration not stated) | 0.85 | > 100 | > 1 | 
CC(C)(C)OC(=O)NC1CCN(C(c2ccc(Cl)cc2)c2cncnc2)CC1 (configuration not stated) | 0.06 | > 100 | 0.26 | 
CCOC(=O)NC1CCN(C(c2ccc(Cl)cc2)c2cccnc2)CC1 (configuration not stated) | 0.018 | > 100 | 0.086 | 
O=C(OCc1ccccc1)N1CCN(C(c2cccnc2)c2ccc(Cl)cc2F)CC1 (configuration not stated) | 0.028 | 59.7 | 0.088 | 
O=C(NCC1CCCCC1)c1cccc(C(O)(c2ccc(Cl)cc2)c2cccnc2)c1 (configuration not stated) | 0.1 | > 100 | 0.28 | 
O=C(Nc1ccc(Cl)cc1)N1CCC(NC(c2ccc(Cl)cc2)c2cccnc2)CC1 (configuration not stated) | 0.025 | 43.4 | 0.086 | 
CC(C)(C)NC(=O)N1CCN(C(c2cncnc2)c2ccc(Cl)cc2F)CC1 (configuration not stated) | 0.054 | > 100 | 0.11 | 
O=C(C1CC1)N1CCC(NC(c2cnccn2)c2ccc(F)cc2F)CC1 (configuration not stated) | 1.38 | > 100 | 3.86 | 

SMILES | IC50 (Trypanosoma cruzi [1]) [µM] | IC50 ([2]; IC50) [µM] | IC90 (Trypanosoma cruzi [3]) [µM] | IC50 [2] [µM]
O=C(NC1CCCC1)N1CCN(C(c2ccc(Cl)cc2)c2cncnc2)CC1 (configuration not stated) | 0.23 | > 100 | 0.62 | 
CN(C)C(=O)N1CCC(NC(c2ccc(Cl)cc2)c2cccnc2)CC1 (configuration not stated) | 0.17 | > 100 | 0.34 | 
CCNC(=O)N1CCN(C(c2cncnc2)c2ccc(Cl)cc2F)CC1 (configuration not stated) | 0.29 | > 100 | 0.77 | 
NC(=O)c1cccc(C(O)(c2ccc(C(F)(F)F)cc2)c2cccnc2)c1 (configuration not stated) | 0.07 | > 100 | 0.3 | 
CC(C)c1ccc(NC(=O)N2CCC(NC(c3ccc(Cl)cc3)c3cccnc3)CC2)cc1 (configuration not stated) | 0.005 | 19.7 | 0.015 | 
O=C(NC1CC1)c1cccc(C(O)(c2ccc(Cl)cc2)c2cccnc2)c1 (configuration not stated) | 0.18 | 72.3 | 0.33 | 
O=C(Nc1ccccc1)NC1CCN(C(c2ccc(Cl)cc2)c2cccnc2)CC1 (configuration not stated) | 0.02 | 75.7 | 0.075 | 
O=C(c1ccccc1)N1CCC(NC(c2ccc(Cl)cc2)c2cccnc2)CC1 (configuration not stated) | 0.084 | > 100 | 0.19 | 
O=S(=O)(c1ccccc1)N1CCC(NC(c2cnccn2)c2ccc(F)cc2F)CC1 (configuration not stated) | 0.4 | 72.2 | 0.88 | 
CN(C)C(=O)NC1CCN(C(c2ccc(Cl)cc2)c2cccnc2)CC1 (configuration not stated) | 0.032 | > 100 | 0.11 | 
O=C(N1CCCCC1)N1CCN(C(c2ccc(Cl)cc2)c2cncnc2)CC1 (configuration not stated) | 0.22 | > 100 | 0.61 | 
CC(C)CC(=O)N1CCC(NC(c2cnccn2)c2ccc(F)cc2F)CC1 (configuration not stated) | 0.55 | > 100 | > 1 | 
CCOC(=O)N1CCN(C(c2ccc(Cl)cc2)c2cccnc2)CC1 (configuration not stated) | 0.058 | 83.2 | 0.12 | 
CCNC(=O)NC1CCN(C(c2ccc(Cl)cc2)c2cccnc2)CC1 (configuration not stated) | 0.097 | > 100 | 0.3 | 
CC(C)c1ccc(NC(=O)N2CCN(C(c3ccc(Cl)cc3)c3cncnc3)CC2)cc1 (configuration not stated) | 0.011 | 36 | 0.036 | 
CCOC(=O)N1CCC(NC(c2ccc(Cl)cc2)c2cccnc2)CC1 (configuration not stated) | 0.07 | > 100 | 0.19 | 
CC(C)(C)OC(=O)N1CCC(NC(c2ccc(C(F)(F)F)cc2)c2cccnc2)CC1 (configuration not stated) | 0.015 | 57.6 | 0.059 | 
O=C(Nc1ccccc1)N1CCN(C(c2ccc(Cl)cc2)c2cncnc2)CC1 (configuration not stated) | 0.12 | 83.7 | 0.31 | 
CC(C)(C)NC(=O)NC1CCN(C(c2ccc(Cl)cc2)c2cccnc2)CC1 (configuration not stated) | 0.063 | > 100 | 0.19 | 
O=C(c1ccccc1)N1CCC(NC(c2cnccn2)c2ccc(F)cc2F)CC1 (configuration not stated) | 0.68 | > 100 | > 1 | 
O=C(C1CCCCC1)N1CCC(NC(c2cnccn2)c2ccc(F)cc2F)CC1 (configuration not stated) | 0.57 | > 100 | 0.99 | 
O=C(OCc1ccccc1)N1CCN(C(c2ccc(Cl)cc2)c2cccnc2)CC1 (configuration not stated) | 0.034 | 51.6 | 0.099 | 
CC(C)(C)OC(=O)N1CCC(NC(c2ccc(Cl)cc2)c2cccnc2)CC1 (configuration not stated) | 0.024 | 58.2 | 0.074 | 
CC(C)(C)CC(=O)N1CCC(NC(c2ccc(Cl)cc2)c2cccnc2)CC1 (configuration not stated) | 0.031 | > 100 | 0.094 | 
CCN(CC)C(=O)N1CCC(NC(c2ccc(Cl)cc2)c2cccnc2)CC1 (configuration not stated) | 0.036 | > 100 | 0.1 | 
CC(C)c1ccc(NC(=O)NC2CCN(C(c3ccc(Cl)cc3)c3cccnc3)CC2)cc1 (configuration not stated) | 0.003 | > 100 | 0.03 | 
O=C(NC1CCCCC1)NC1CCN(C(c2ccc(Cl)cc2)c2cccnc2)CC1 (configuration not stated) | 0.026 | 84.3 | 0.11 | 
